pIC50, pKi: −log10 of the molar value.
Tests used:
HCT-116 cells = experiment: Inhibition of cell growth (MTT), HCT-116 cells; conditions: Homo sapiens, HCT-116, 120 h, read-out: IC50 HCT 116 cells
Experimental: (§1) HCT-116 and PC-3 cells were cultured at 37° C. with 5% CO2 and in 10% fetal bovine serum with McCoy's 5A modified medium and F-12 K medium respectively. Cells were plated on 96 well plates at a density of 2,000-4,000/well in the volume of 100 μL medium. […] The control wells contained 1% dimethylsulfoxide only in their medium. After further incubation of three to five days to allow cells grow before the control cells reach confluence, 15 μL/well MTT reagent (5 mg/mL) were added and incubated for 4 h. After the incubation, the medium was removed and the newly generated formazan solubilized with dimethylsulfoxide (100 μL/well) and measured at 540 nm. The absorption data were fit into equation and calculated for IC50 values through use of the program KaleidaGraph (Synergy Software). The fitting equation for IC50 is y=a+b/(1+(x/IC50)); x is the compound concentration, a is the background absorption at 540 nm, and b is the absorption at zero compound concentration.

PC-3 cells = experiment: Inhibition of cell growth (MTT), PC-3 cells; conditions: Homo sapiens, PC-3, 120 h, read-out: IC50 PC-3
Experimental: as §1

human CK2 = target: T1, human CK2 (Homo sapiens, UniProt P68400); experiment: CK2 protein kinase inhibition assay (spectrophotometric PK/LDH coupled assay); format: biochemical
T1 construct: Full Length His-tagged Human CK2 was cloned, expressed, and purified; His tag; made in house; host or cells: E. coli
T1 sequence (P68400 whole entry): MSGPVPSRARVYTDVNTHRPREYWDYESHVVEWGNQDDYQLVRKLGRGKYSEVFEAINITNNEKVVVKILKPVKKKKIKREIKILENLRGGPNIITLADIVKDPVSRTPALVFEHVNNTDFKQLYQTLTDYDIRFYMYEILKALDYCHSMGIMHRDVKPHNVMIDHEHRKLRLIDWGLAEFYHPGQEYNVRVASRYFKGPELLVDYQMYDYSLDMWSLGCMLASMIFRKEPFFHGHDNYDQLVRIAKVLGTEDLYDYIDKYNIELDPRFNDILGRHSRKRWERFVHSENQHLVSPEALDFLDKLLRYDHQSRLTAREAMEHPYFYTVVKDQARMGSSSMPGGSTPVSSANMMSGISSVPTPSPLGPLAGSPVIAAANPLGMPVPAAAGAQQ
Experimental: CK2 protein kinase activity was measured through use of a spectrophotometric PK/LDH coupled assay to detect ATP turnover. Full Length His-tagged Human CK2 was cloned, expressed, and purified from an E. coli expression system. The peptide substrate for CK2 phosphorylation was […] (Genscript Corporation, Piscataway, N.J., USA). […] Prior to the addition of ATP to initiate the phosphorylation reaction, CK2 enzyme was pre-incubated with inhibitors and other assay components for 5 min. Progress of the reaction was continuously monitored by the change in UV/Vis absorbance at 340 nm. […] In the case of very potent binding, tight-binding methods were employed to determine Ki.

Row | pIC50 (HCT-116 cells) | pIC50 (PC-3 cells) | pKi (human CK2) | Structure (SMILES)
1 | > 6.00 | > 6.00 | > 7.00 | O=C1CCCCc2cnn3c(Nc4cccnc4)nc(nc23)Nc2cccc(c2)N1 [Compound 11d, (11,14)3,5N-{pyrid-3-yl-pyrazolo[1,5-a][1,3,5]triazin-4-yl-amino}-(2N,4N)-phenyl-1,5-diaza-cyclotetradeca-8-one]
2 | > 6.00 | > 6.00 | > 7.00 | O=C1CCCCc2cnn3c(Nc4cccc(C(=O)N5CC(O)C5)c4)nc(nc23)Nc2cccc(c2)N1 [Compound 11l, (11,14)3,5N-{4-({3-[(3-hydroxyazetidin-1-yl)carbonyl]phenyl}amino)-pyrazolo[1,5-a][1,3,5]triazin-4-yl-amino}-(2N,4N)-phenyl-1,5-diaza-cyclotetradeca-8-one]
3 | > 6.00 | > 6.00 | > 7.00 | CCN(CC)C(=O)c1cccc(Nc2nc3nc4c(cnn24)CCCCC(=O)Nc2cccc(c2)N3)c1 [Compound 11j, (11,14)3,5N-{4-[(3-{3-(diethylamino)carbonyl}phenyl)amino]-pyrazolo[1,5-a][1,3,5]triazin-4-yl-amino}-(2N,4N)-phenyl-1,5-diaza-cyclotetradeca-8-one]
4 | > 6.00 | > 6.00 | > 7.00 | CN(C)CCN(C)C(=O)c1cccc(Nc2nc3nc4c(cnn24)CCCCC(=O)Nc2cccc(c2)N3)c1 [Compound 11n, (11,14)3,5N-{4-[(3-{[[2-(dimethylamino)ethyl](methyl)-amino]carbonyl}phenyl)amino]-pyrazolo[1,5-a][1,3,5]triazin-4-yl-amino}-(2N,4N)-phenyl-1,5-diaza-cyclotetradeca-8-one]
5 | > 6.00 | > 6.00 | > 7.00 | CN1CC(NC(=O)c2cccc(Nc3nc4nc5c(cnn35)CCCCC(=O)Nc3cccc(c3)N4)c2)C1 [Compound 11m]
6 | > 6.00 | > 6.00 | > 7.00 | CN1CCC(N(C)C(=O)c2cccc(Nc3nc4nc5c(cnn35)CCCCC(=O)Nc3cccc(c3)N4)c2)C1 (centres unmarked) [Compound 11g, (11,14)3,5N-{3-(3-{[methyl(1-methylpyrrolidin-3-yl)amino]carbonyl}phenyl)-pyrazolo[1,5-a][1,3,5]triazin-4-yl-amino}-(2N,4N)-phenyl-1,5-diaza-cyclotetradeca-8-one]
7 | > 6.00 | > 6.00 | > 7.00 | CN1CCN(C(=O)c2cccc(Nc3nc4nc5c(cnn35)CCCCC(=O)Nc3cccc(c3)N4)c2)CC1 [Compound 11h, (11,14)3,5N-{3-(4-methylpiperazin-1-ylcarbonyl)phenyl-pyrazolo[1,5-a][1,3,5]triazin-4-yl-amino}-(2N,4N)-phenyl-1,5-diaza-cyclotetradeca-8-one]
8 | > 6.00 | > 6.00 | > 7.00 | CCN(CC)C1CN(C(=O)c2cccc(Nc3nc4nc5c(cnn35)CCCCC(=O)Nc3cccc(c3)N4)c2)C1 [Compound 11q, (11,14)3,5N-{[(3-{[3-(diethylamino)azetidin-1-yl]carbonyl}-phenyl)amino]-pyrazolo[1,5-a][1,3,5]triazin-4-yl-amino}-(2N,4N)-phenyl-1,5-diaza-cyclotetradeca-8-one]
9 | > 5.52 | > 5.52 | > 7.00 | CN(C)C1CCN(C(=O)c2cccc(Nc3cc4nc5c(cnn35)CCCCC(=O)Nc3cccc(c3)N4)c2)C1 (centres unmarked) [Compound 18a, (11,14)3,5N-{[(3-Dimethylamino-pyrrolidine-1-carbonyl)-phen-3-yl]-pyrazolo[1,5-a]pyrimidin-2,4-yl-diamino}-(2N,4N)-phenyl-1,5-diaza-cyclotetradecan-6-one]
10 | > 6.00 |  | > 7.00 | CN1CCC(N(C)C(=O)c2cccc(Nc3nc4nc5c(cnn35)CCCCC(=O)Nc3cccc(c3)N4)c2)CC1 [Compound 11o, (11,14)3,5N-{4-[(3-{[methyl(1-methylpiperidin-4-yl)amino]carbonyl}-phenyl)amino]-pyrazolo[1,5-a][1,3,5]triazin-4-yl-amino}-(2N,4N)-phenyl-1,5-diaza-cyclotetradeca-8-one]
11 | > 6.00 | > 6.00 | > 7.00 | CCOc1cccc(Nc2nc3nc4c(cnn24)CCCCC(=O)Nc2cccc(c2)N3)c1 [Compound 11e, (11,14)3,5N-{(3-ethoxyphenyl)-pyrazolo[1,5-a][1,3,5]triazin-4-yl-amino}-(2N,4N)-phenyl-1,5-diaza-cyclotetradeca-8-one]
12 | > 6.00 | > 6.00 | > 7.00 | CN(C)CCNC(=O)c1cccc(Nc2nc3nc4c(cnn24)CCCCC(=O)Nc2cccc(c2)N3)c1 [Compound 11k, (11,14)3,5N-{4-{[3-({[2-(dimethylamino)ethyl]-amino}carbonyl)phenyl]amino}-pyrazolo[1,5-a][1,3,5]triazin-4-yl-amino}-(2N,4N)-phenyl-1,5-diaza-cyclotetradeca-8-one]
13 | > 5.52 | > 5.52 | > 7.00 | O=C1CCCCc2cnn3c(NC4CC4)cc(nc23)Nc2cccc(c2)N1 [Compound 18b]
14 | > 6.00 | > 6.00 |  | O=C1CCCCc2cnn3c(NC4CC4)nc(nc23)Nc2cccc(c2)N1 [Compound 11a, (11,14)3,5N-{cyclopropyl-pyrazolo[1,5-a][1,3,5]triazin-4-ylamino}-(2N,4N)-phenyl-1,5-diaza-cyclotetradeca-8-one]
15 | > 6.00 | > 6.00 | > 7.00 | CCN(CC)C1CCN(C(=O)c2cccc(Nc3nc4nc5c(cnn35)CCCCC(=O)Nc3cccc(c3)N4)c2)C1 (centres unmarked) [Compound 11p, (11,14)3,5N-{[(3-{[3-(diethylamino)pyrrolidin-1-yl]carbonyl}phenyl)amino]-pyrazolo[1,5-a][1,3,5]triazin-4-yl-amino}-(2N,4N)-phenyl-1,5-diaza-cyclotetradeca-8-one]
16 | > 6.00 |  | > 7.00 | O=C1CCCCc2cnn3c(Nc4cccc(C(=O)N5CCNCC5)c4)nc(nc23)Nc2cccc(c2)N1 [Compound 11r, (11,14)3,5N-{{[3-(piperazin-1-ylcarbonyl)phenyl]amino}-pyrazolo[1,5-a][1,3,5]triazin-4-yl-amino}-(2N,4N)-phenyl-1,5-diaza-cyclotetradeca-8-one]
17 | > 6.00 | > 6.00 | > 7.00 | CN(C)C1CCN(C(=O)c2cccc(Nc3nc4nc5c(cnn35)CCCCC(=O)Nc3cccc(c3)N4)c2)C1 (centres unmarked) [Compound 11i]
18 | > 6.00 |  | > 7.00 | CCN(CC)CCN(C)C(=O)c1cccc(Nc2nc3nc4c(cnn24)CCCCC(=O)Nc2cccc(c2)N3)c1 [Compound 11s]

Source: patent US7517882B2, “Protein kinase inhibitors” (Polaris Group, priority 2006, dated 2009)
